Here are results for 2 compounds from patent publication US7354954B1, “Use of GABA agonists for treatment of spastic disorders, convulsions, and epilepsy” (priority 2000, dated 2008).

Data set [1] has as its system chronic spastic SCl rat model. In words: Ability to walk a series of balance beams (7.7 cm to 1.7 cm) in spastic SCI rats. Format: in vivo, Sprague Dawley rats. The settings on record: for beam walking, mean: 15 micrograms per day intrathecal. As for the experimental part:
Subjects—Twenty Sprague Dawley rats with severe spinal cord injury and spasticity, which were more than ten weeks from initial weight, drop injury. […] The rats were implanted using the 2 French Fogarty balloon catheter attached to a refillable 1 cc. Pumps (ESOX Minneapolis Minn.) placed surgically in the subcutaneously between the shoulder blades one week earlier that had been effectively delivering preservative free normal saline. The ESOX pump flowed at a rate of 60 μl per day. The pump initially contained saline solution and the animals were again tested several days after pump placement for spasticity. Design—Rats were randomized to a blinded three-arm study utilizing GABAmide, baclofen and placebo in a cross over design. The pump has the advantage that the solution in the pump can be changed so that drugs can be evaluated. GABAmide was placed in the pumps and the animals were evaluated at the times specified below. Main Outcome Measures—Rats were tested weekly for levels of spasticity: 4) spasms spontaneously occur over a four minute observation period 3) spasms with light touch of the foot 2) spasms with passive movement of the foot and leg by extending the leg 1) spasms with painful stimulation—extend leg and pinch foot 0) no spasms inducible This scale was adapted for use in animals from the Ashworth score (Albright et al., Intrathecal baclofen therapy for spasticity of cerebral origin: Patient selection guidelines 1997), which has been utilized so frequently in human trials and in the clinical management of intrathecal baclofen. Meythaler et al., Arch. Phys. Med. Rehabil. […] Rats were also assessed for functional changes utilizing the BBB scoring system for motor function and for their ability to walk a series of balance beams without falling that started at 7.7 cm. and decreased in 1 cm increments to 1.7 cm. in diameter (the smallest a normal rat can easily and reliably cross). […] Differences over times were assessed via descriptive statistics, Friedman's analysis, Wilcoxon signed-rank, for nonparametric data (spasticity, BBB score and beam walking).

A further data set is described as follows: Solubility in water. It counts as physicochemical.
For data set [2], the system named is chronic spastic SCl rat model. The experiment in a line: Spasticity score (scale adapted from the Ashworth score) in chronic spastic SCI rat model, intrathecal delivery by implantable pump. Format: in vivo, Sprague Dawley rats. The settings on record: compared with baclofen. As for the experimental part:
(§1) A study on the use GABAmide was performed to compare its effectiveness to reduce spasticity and assess toxicity via intrathecal delivery in a chronic spastic SCl rat model utilizing an implantable refillable pump.
(§2) Subjects—Twenty Sprague Dawley rats with severe spinal cord injury and spasticity, which were more than ten weeks from initial weight, drop injury. […] The rats were implanted using the 2 French Fogarty balloon catheter attached to a refillable 1 cc. Pumps (ESOX Minneapolis Minn.) placed surgically in the subcutaneously between the shoulder blades one week earlier that had been effectively delivering preservative free normal saline. The ESOX pump flowed at a rate of 60 μl per day. […] The pump has the advantage that the solution in the pump can be changed so that drugs can be evaluated. GABAmide was placed in the pumps and the animals were evaluated at the times specified below. […] Rats were also assessed for functional changes utilizing the BBB scoring system for motor function and for their ability to walk a series of balance beams without falling that started at 7.7 cm. and decreased in 1 cm increments to 1.7 cm. in diameter (the smallest a normal rat can easily and reliably cross). […] Differences over times were assessed via descriptive statistics, Friedman's analysis, Wilcoxon signed-rank, for nonparametric data (spasticity, BBB score and beam walking).

In data set [3] the test system is chronic spastic SCl rat model. In words: BBB scoring system for motor function in spastic SCI rats. Format: in vivo, Sprague Dawley rats. The procedure:
as §2, with “day. The pump initially contained saline solution and the animals were again tested several days after pump placement for spasticity.” for “day.”

Another data set can be described thus: Stability in solution. Format: physicochemical. From the text:
In a preferred embodiment, the compound administered to a patient or subject is the gamma-aminobutyramide, a solubility product obtained by dissolving PROGABIDE in a solvent thereby generating gamma-aminobutyramide and an insoluble ketone. The insoluble ketone (4-chlorophenyl-5-fluoro-2-hydroxyphenylmethanone) is subsequently removed by filtration leaving the pure, stable gamma-aminobutyramide.

In data set [4] the test system is chronic spastic SCl rat model. The experiment in a line: Tolerability of intrathecal delivery in spastic SCI rats. It counts as in vivo. As for the experimental part:
as §1, §2

Another data set has as its system canine model. The settings on record: 2000 μg/d for 28 days, intrathecal; cited from earlier work.
Where [5] appears, read: 5 micrograms per day intrathecal, throughout the study.

As for `NCCCC(N)=O` [GABAmide, gamma-aminobutyramide], the “change in beam walking” value in data set [1] (setting [5]) was “not statistically significant change”. Moreover, the solubility in water entry in “Solubility in water” is recorded as “soluble in water”. The accommodation to spasticity entry in data set [2] was “less accommodation to spasticity than baclofen”. Further, the “change in BBB score” value in data set [3] (setting [5]) is “not statistically significant change”. Besides, the stability result in the data set “Stability in solution” was “relatively stable for long periods of time”. For the same compound, the tolerability result in data set [4] was “well tolerated”.
`NCC(CC(=O)O)c1ccc(Cl)cc1` (stereo not shown) [baclofen]: the “beam walking, mean” value in data set [1] (day five of treatment) worked out at 6.0 cm; in data set [1] (day three, baseline 5.2 cm, p=0.01 Friedman's), 2.7 cm. Also, the histopathology result with canine model is “no deleterious histopathology”. In addition, the “change in BBB score” value in data set [3] (15 micrograms per day intrathecal, day five of treatment) is reported as “not significant”.
